This note sets out measurements from patent US5250563A, “Inhibitors of HIV protease” (Merck & Co., Inc., priority 1992, dated 1993).

The first experiment concerns the target T1, HIV protease (Human immunodeficiency virus type 1 group M subtype B, UniProt P04585). Briefly: peptide cleavage assay (HIV protease assay). The experiment is classed as biochemical.
Conditions: not given
As a reminder, the IC50 is the midpoint of a concentration-inhibition curve. In turn, `C=C1C(C)C2C(Cc3ccccc3)NC(=O)C23C(OC(C)=O)C=CC(C)CC(C)CC=CC3C1O` (centres unmarked) [Compound 1] gave an IC50 of roughly 6.28 µM.

Another experiment concerns the target T1, HIV protease. Briefly: Assay for Inhibition of Recombinant HIV Protease (tritiated peptide substrate cleavage). The experiment is classed as biochemical. Details: the HIV protease expressed in Escherichia coli; made in house; host or cells: Escherichia coli. As to conditions: pH 5.5, 60 minutes at 37° C., HIV protease expressed in Escherichia coli, [3H]-peptide substrate. The method, then:
Assay for Inhibition of Recombinant HIV Protease
Inhibition studies were performed on the reaction of the HIV protease expressed in Escherichia coli with a tritiated peptide substrate, [^3 H]-acetyl-Val-Ser-Gln-Asn-(beta-napthyl-Ala)-Pro-Ile-Val-Gin-Gly-Arg-Arg-NH2 (MW 1800). The two arginine residues at the carboxyl terminus give this peptide an overall positive charge at acidic pH and enable it to bind to the H^+ form of DOWEX AG-50W-X8 resin and similar resins.
Aliquots of 25 μl containing 6.0-8.0 nM HIV protease in assay buffer (100 mM sodium acetate, pH 5.5 and 0.1% BSA) are placed in assay tubes. The reaction is initiated by addition of 25 μl aliquots of 4.2 μM tritiated peptide substrate in 100 mM sodium acetate, pH 5.5. After incubation for 60 minutes at 37° C., the reaction is stopped with 100 μl of 5% H3 PO4, then analysed by application of column chromatography.
As to `C=C1C(C)C2C(Cc3ccccc3)NC(=O)C23C(OC(C)=O)C=CC(C)CC(C)CC=CC3C1O` (centres unmarked) [Compound 1], the IC50 came to 10 µM.
Same read-out and setting: the figure for `C=C1C(C)C2C(Cc3cccc(O)c3)NC(=O)C23C(OC(C)=O)C=CC(C)CC(O)(CO)CC=CC3C1O` (centres unmarked) [Compound 7] is greater than 50 µM; for `C=C1C(C)C2C(Cc3ccc(O)c(O)c3)NC(=O)C23C(OC(C)=O)C=CC(C)CC(CO)CC=CC3C1O` (centres unmarked) [Compound 5] it is greater than 50 µM.
Consider `C=C1C(C)C2C(Cc3cccc(O)c3)NC(=O)C23C(OC(C)=O)C=CC(C)CC(CO)CC=CC3C1O` (centres unmarked) [Compound 4], for which the IC50 turned out to be 25 µM.
On the same count and under the same terms, the figure for `C=C1C(C)C2C(Cc3ccccc3)NC(=O)C23C(OC(C)=O)C=CC(C)CC(CO)CC=CC3C1O` (centres unmarked) [Compound 2] is 43 µM.
With `C=C1C(C)C2C(Cc3ccc(O)cc3)NC(=O)C23C(OC(C)=O)C=CC(C)CC(CO)CC=CC3C1O` (centres unmarked) [Compound 3], the IC50 was 40 µM.
Take `C=C1C(C)C2C(Cc3ccccc3)NC(=O)C23C(OC(C)=O)C=CC(C)CC(O)(CO)CC=CC3C1O` (centres unmarked) [Compound 6]: the IC50 is greater than 50 µM.
